# Laboratory results as given in PubChem BioAssay (NCI).
#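 Step 1: Grow cells in 96-well plates. Step 2: Expose to compound for 48 hours at 5 concentrations. Step 3: Interpolate endpoints linearly; if unreached, use highest concentration. GI50: concentration for 50% inhibition of growth. TGI denotes the concentration required for complete inhibition of growth.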
# Columns and labels:
# Assay in all cases: inhibition of tumour cell growth, NCI panel, 48 h
# A549 NSCLC = tested on: A549 NSCLC
# HCC-2998 colon = tested on: HCC-2998 colon
# HCT-116 colon = tested on: HCT-116 colon
# HCT-15 colon = tested on: HCT-15 colon
# HOP-92 NSCLC = tested on: HOP-92 NSCLC
# SK-MEL-2 melanoma = tested on: SK-MEL-2 melanoma
# SN12C renal = tested on: SN12C renal
# BT-549 breast = tested on: BT-549 breast
# MDA-MB-435 = tested on: MDA-MB-435
# PC-3 prostate = tested on: PC-3 prostate
SMILES,TGI (A549 NSCLC) [µM],TGI (HCC-2998 colon) [µM],TGI (HCT-116 colon) [µM],TGI (HCT-15 colon) [µM],TGI (HOP-92 NSCLC) [µM],TGI (SK-MEL-2 melanoma) [µM],TGI (SN12C renal) [µM],GI50 (A549 NSCLC) [µM],GI50 (BT-549 breast) [µM],TGI (BT-549 breast) [µM],GI50 (HCC-2998 colon) [µM],GI50 (HCT-116 colon) [µM],GI50 (HCT-15 colon) [µM],GI50 (HOP-92 NSCLC) [µM],GI50 (MDA-MB-435) [µM],TGI (MDA-MB-435) [µM],GI50 (PC-3 prostate) [µM],TGI (PC-3 prostate) [µM],GI50 (SK-MEL-2 melanoma) [µM],GI50 (SN12C renal) [µM]
O=c1c2ccccc2c(=O)n2n1CC=CC2,> 100,> 100,> 100,> 100,> 100,> 100,> 100,–,–,–,–,–,–,–,–,–,–,–,–,–
COc1ccc(/C=C/C(=O)c2ccc(O)c(CN3CCN(c4cc5c(cc4F)c(=O)c(C(=O)O)cn5C4CC4)CC3)c2)cc1,> 100,> 100,> 100,> 100,6.21,21,–,3.69,1.28,> 100,4.15,0.368,2.22,1.23,2.17,> 100,1.39,> 100,2.87,–
COc1ccc2c(c1)[n+]([O-])c(-c1ccc(OC)c(OC)c1)c(N)[n+]2[O-],> 100,> 100,–,> 100,–,> 100,> 100,–,–,–,–,–,–,–,–,–,–,–,–,–
O=C1NC2(CCCCCC2)C2CCCCCCC12O (stereo unspecified),> 100,–,> 100,> 100,> 100,> 100,> 100,–,–,–,–,–,–,–,–,–,–,–,–,–
N.N.N.N.N.[Cl-].[Co+3].c1ccc(-c2nn[n-]n2)cc1,> 100,> 100,> 100,> 100,> 100,> 100,> 100,> 100,–,–,> 100,> 100,> 100,> 100,–,–,–,–,> 100,> 100
COC(=O)c1ccccc1OCc1cc(=O)oc2ccc(C)cc12,> 100,> 100,> 100,> 100,> 74.7,> 85.4,> 100,–,–,> 100,–,–,–,–,–,> 100,–,> 100,–,–
COCC(O)Cn1ccnc1[N+](=O)[O-] (stereo unspecified),> 100,> 100,> 100,> 100,–,> 100,> 100,–,–,–,–,–,–,–,–,–,–,–,–,–
CN[C@H](C#Cc1c(F)ccc2c1/C(=C/c1[nH]ccc1OC)C(=O)N2)CO,2.82,3.27,5.21,3.02,11.8,0.749,25,0.354,1.15,4.15,0.746,0.136,0.117,3.17,0.354,2.82,1.03,10.8,0.199,0.2
Cc1oc2c(C)c3oc(=O)cc(C)c3cc2c1CN1C(=O)C2OCCOCCOCCOCCOCCO[C@H]2C1=O (stereo partly specified),> 100,> 100,> 100,> 100,> 100,–,> 100,–,–,–,–,–,–,–,–,–,–,–,–,–
O=C(Nc1cccc(-n2cc(-c3ccncc3)c(-c3cc(O)cc(Cl)c3)n2)c1)Nc1ccc(Cl)c(C(F)(F)F)c1,9.2,13.4,4.47,6.01,–,4.55,17.2,2.33,2.25,6.15,3.93,1.96,2.21,–,1.78,3.89,2.1,6.43,2.2,3.45
CC1OC(OC2C[C@](O)(C(=O)CF)Cc3c(O)c4c(c(O)c32)C(=O)c2ccccc2C4=O)CC(N)C1O (stereo partly specified),0.173,0.488,0.388,0.514,0.805,0.512,0.338,–,–,0.918,–,–,–,–,–,0.321,–,0.354,–,–
CCC(C)[C@H]1O[C@]2(C=C[C@@H]1C)C[C@@H]1C[C@@H](C/C=C(\C)[C@@H](OC3C[C@H](OC)C(O[C@H]4C[C@H](OC)[C@@H](O)[C@H](C)O4)[C@H](C)O3)[C@@H](C)/C=C/C=C3\CO[C@@H]4[C@H](O)C(C)=C[C@@H](C(=O)O1)[C@]34O)O2 (stereo partly specified),7.04,1.67,1.53,6.79,1.41,2.6,6.95,1.22,0.864,1.66,0.843,0.752,1.72,0.65,–,–,–,–,1.24,1.65
C1=CC=C2NCCCCCCCNC3=CC=CC=CC3=NCCCCCCCN=C2C=C1,> 100,> 100,> 100,> 100,98.6,> 100,> 100,–,–,–,–,–,–,–,–,–,–,–,–,–
OCC(O)C(Cl)CCl (stereo unspecified),> 100,> 100,> 100,> 100,–,–,> 100,–,–,> 100,–,–,–,–,–,–,–,> 100,–,–
CCOC(=O)c1c2c(n(Cc3ccc(Cl)cc3Cl)c1C)-c1nc[nH]c1C(=O)C2=O,23.1,–,5.66,23,2.75,41.2,13.1,10.9,15.5,31.8,–,2.16,11,1.28,13.5,30.1,–,–,19.5,3.02
OCC1C(/C=C/c2ccoc2)ON2CCCC12 (stereo unspecified),> 100,> 100,–,–,–,> 100,> 100,–,–,–,–,–,–,–,–,–,–,–,–,–
Cc1cc(C(=C2C=CC(=Nc3ccccc3)C=C2)c2ccc(Nc3ccccc3)cc2)ccc1N,1.69,0.452,1.02,–,1.73,0.529,1.48,0.599,1.06,2.26,0.211,0.287,–,0.475,–,–,–,–,0.216,0.31
O=C(CC(=O)C1=CNc2ccccc2S1)C(=O)Nc1ccc(Cl)cc1,> 50,> 50,> 50,> 50,> 50,> 50,> 50,–,–,–,–,–,–,–,–,–,–,–,–,–
CC(C)CCCC(C)[C@H]1CCC2[C@@H]3CCC4Nc5nocc5C[C@]4(C)C3CC[C@@]21C (stereo partly specified),54.8,29.5,32.4,30.3,–,38.7,33.8,–,–,–,–,–,–,–,–,–,–,–,–,–
O=C(O/C(=C(/N=Nc1ccccc1)c1ccccc1)c1ccccc1)c1ccccc1,> 100,> 100,> 100,> 100,> 100,> 100,> 100,–,–,–,–,–,–,–,–,–,–,–,–,–
CCOC1=C2C(=O)OC(=O)C2C2CCCCC2=C1 (stereo unspecified),> 100,> 100,> 100,> 100,> 100,> 100,> 100,–,–,–,–,–,–,–,–,–,–,–,–,–
